Measured values published in ChEMBL document CHEMBL1122976, “Potential inhibitors of S-adenosylmethionine-dependent methyltransferases. 10. Base- and amino acid modified analogues of S-aristeromycinyl-L-homocysteine” (J Med Chem, 1985).

Experiments:
[1] = target: Histamine N-methyltransferase (Cavia porcellus) (UniProt Q9EST2); assay: Inhibition of Histamine N-methyl-transferase at 0.2 mM
[2] = target: Histamine N-methyltransferase (Cavia porcellus) (UniProt Q9EST2); assay: Inhibition of Histamine N-methyl-transferase at 2.0 mM
[3] = target: T1, Phenylethanolamine N-methyltransferase (Bos taurus) (UniProt P10938); assay: Inhibition of PNMT at 0.2 mM
T1 sequence (whole entry): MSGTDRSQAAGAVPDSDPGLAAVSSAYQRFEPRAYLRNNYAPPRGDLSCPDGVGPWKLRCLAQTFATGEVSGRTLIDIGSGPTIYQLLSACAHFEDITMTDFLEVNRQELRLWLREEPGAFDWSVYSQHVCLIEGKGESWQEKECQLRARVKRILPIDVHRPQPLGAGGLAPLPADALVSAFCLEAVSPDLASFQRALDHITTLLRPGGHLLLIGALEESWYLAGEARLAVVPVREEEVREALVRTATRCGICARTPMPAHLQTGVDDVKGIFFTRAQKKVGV

[4] = target: T1, Phenylethanolamine N-methyltransferase (Bos taurus); assay: Inhibition of PNMT at 2.0 mM
[5] = target: T2, Catechol O-methyltransferase (Rattus norvegicus) (UniProt P22734); assay: Inhibition of Catechol O-methyltransferase at 0.2 mM
T2 sequence (whole entry): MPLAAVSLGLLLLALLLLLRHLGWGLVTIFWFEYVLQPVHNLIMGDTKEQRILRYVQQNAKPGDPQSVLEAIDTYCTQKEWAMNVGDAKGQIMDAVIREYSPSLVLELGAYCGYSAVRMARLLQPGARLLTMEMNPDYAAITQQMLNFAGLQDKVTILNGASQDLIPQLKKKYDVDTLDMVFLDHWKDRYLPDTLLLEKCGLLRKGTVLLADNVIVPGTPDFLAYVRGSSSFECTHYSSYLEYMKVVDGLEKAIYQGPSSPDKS

[6] = target: T2, Catechol O-methyltransferase (Rattus norvegicus); assay: Inhibition of Catechol O-methyltransferase at 2.0 mM
[7] = target: T3, Phenylethanolamine N-methyltransferase (Bos taurus, UniProt P10938); assay: Inhibition constant was evaluated against PNMT
T3 sequence (P10938 whole entry): T1 sequence (whole entry)

Sequence of Histamine N-methyltransferase (Cavia porcellus) (Q9EST2 whole entry): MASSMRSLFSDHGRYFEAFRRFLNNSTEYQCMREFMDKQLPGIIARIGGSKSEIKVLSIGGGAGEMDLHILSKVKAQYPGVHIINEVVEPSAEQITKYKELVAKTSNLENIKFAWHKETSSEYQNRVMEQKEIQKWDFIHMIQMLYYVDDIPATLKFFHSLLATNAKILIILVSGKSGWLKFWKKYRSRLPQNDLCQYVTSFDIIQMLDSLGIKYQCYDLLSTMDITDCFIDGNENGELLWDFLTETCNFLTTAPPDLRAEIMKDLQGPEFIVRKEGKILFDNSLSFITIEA

Structure (SMILES) | inhibition [1] | inhibition [2] | inhibition [3] | inhibition [4] | inhibition [5] | inhibition [6] | Ki [7]
Nc1ncnc2c1ncn2[C@@H]1O[C@H](C[S+]([O-])CCC(N)C(=O)O)[C@@H](O)[C@H]1O (some centres undefined) | 0% | 9% | 10% | 22% | 14% | 42% | –
Nc1ncnc2c1ncn2[C@@H]1O[C@H](CSCC[C@H](N)C(=O)O)[C@@H](O)[C@H]1O (stereo in doubt; 5) [S-ADENOSYLHOMOCYSTEINE] | – | – | – | – | – | – | 29 µM
CNc1ncnc2c1ncn2C1O[C@H](CSCCC(N)C(=O)O)[C@@H](O)[C@H]1O (some centres undefined) | 11% | 28% | 11% | 42% | 15% | 55% | –
Nc1ncnc2c1ncn2[C@@H]1O[C@H](CSCC[C@H](N)C(=O)O)[C@@H](O)[C@H]1O (stereo in doubt; 9) [S-ADENOSYLHOMOCYSTEINE] | – | – | – | – | – | – | 62.3 µM
